In patent US8507251B2, “Medium and method for culturing Mycobacterium avium subspecies paratuberculosis” (priority 2009, dated 2013):
Read-outs that look alike come from different tables or passages of the source.

What was measured:
[1] = test system: MAP strain Dominic (ATCC 43545); assay: radiometric 14CO2 BACTEC 460 growth culture, MAP Dominic; format: cell-based, Mycobacterium avium subspecies paratuberculosis; details: for effect on growth (in words): at the doses tested
MAP strain UCF-4 = assay: radiometric 14CO2 BACTEC 460 growth culture, MAP UCF-4; format: cell-based, Mycobacterium avium subspecies paratuberculosis; details: for effect on growth (in words): at the doses tested
MAP ATCC 19698 = assay: radiometric 14CO2 BACTEC 460 growth culture, MAP 19698; format: cell-based, Mycobacterium avium subspecies paratuberculosis; details: for effect on growth (in words): at the doses tested
MAP 303 = assay: radiometric 14CO2 BACTEC 460 growth culture, MAP 303; format: cell-based, Mycobacterium avium subspecies paratuberculosis; details: for effect on growth (in words): at the doses tested
M. avium ATCC 25291 = assay: radiometric 14CO2 BACTEC 460 growth culture, M. avium 25291; format: cell-based, M. avium subspecies avium
M. avium 101 = assay: radiometric 14CO2 BACTEC 460 growth culture, M. avium 101; format: cell-based, M. avium subspecies avium
[2] = test system: Bacillus Callmette Guerin (BCG) M. bovis Karlson & Lessel (ATCC 19015); format: cell-based
[3] = test system: avirulent M. tb strain ATCC 25177; format: cell-based, M. tuberculosis
[4] = 1 μg/ml, first of the two values (two experiments)
[5] = 4 μg/ml, first of the two values (two experiments)
[6] = 16 μg/ml, first of the two values (two experiments)
[7] = 64 μg/ml, first of the two values (two experiments)

NNC(=O)c1ccncc1 [INH, Isoniazid, reference compound] was tested, and the “percent change from control cGI (% ΔcGI / % −ΔcGI)” value (shortened to “percent change … (% ΔcGI / % −ΔcGI)”) [1, 4] was 18%, the “percent change … (% ΔcGI / % −ΔcGI)” value ([1]; 1 μg/ml, second of the two values (two experiments)) was 11% and the “percent change … (% ΔcGI / % −ΔcGI)” value [1, 5] was 9%. For the same molecule, the “percent change … (% ΔcGI / % −ΔcGI)” value ([1]; 4 μg/ml, second of the two values (two experiments)) was 29%, the “percent change … (% ΔcGI / % −ΔcGI)” value [1, 6] was −4% and the “percent change … (% ΔcGI / % −ΔcGI)” value ([1]; 16 μg/ml, second of the two values (two experiments)) was 9%. The “percent change … (% ΔcGI / % −ΔcGI)” value [1, 7] was −65%, the “percent change … (% ΔcGI / % −ΔcGI)” value ([1]; 64 μg/ml, second of the two values (two experiments)) was −52% and the “effect on growth (in words)” value [1] was “no dose-dependent inhibition”. The “percent change … (% ΔcGI / % −ΔcGI)” value (MAP strain UCF-4; 1 μg/ml) was −5%, the “percent change … (% ΔcGI / % −ΔcGI)” value (MAP strain UCF-4; 4 μg/ml) was 2% and the “percent change … (% ΔcGI / % −ΔcGI)” value (MAP strain UCF-4; 16 μg/ml) was −4%. The “percent change … (% ΔcGI / % −ΔcGI)” value (MAP strain UCF-4; 64 μg/ml) was −35%, the “effect on growth (in words)” value (MAP strain UCF-4) was “no dose-dependent inhibition” and the “percent change … (% ΔcGI / % −ΔcGI)” value (MAP ATCC 19698; 1 μg/ml) was −20%. The “percent change … (% ΔcGI / % −ΔcGI)” value (MAP ATCC 19698; 4 μg/ml) was −14%, the “percent change … (% ΔcGI / % −ΔcGI)” value (MAP ATCC 19698; 16 μg/ml) was −17% and the “percent change … (% ΔcGI / % −ΔcGI)” value (MAP ATCC 19698; 64 μg/ml) was −63%. The “effect on growth (in words)” value (MAP ATCC 19698) was “no dose-dependent inhibition”, the “percent change … (% ΔcGI / % −ΔcGI)” value (MAP 303; 1 μg/ml) was −18% and the “percent change … (% ΔcGI / % −ΔcGI)” value (MAP 303; 4 μg/ml) was −6%. The “percent change … (% ΔcGI / % −ΔcGI)” value (MAP 303; 16 μg/ml) was −12%, the “percent change … (% ΔcGI / % −ΔcGI)” value (MAP 303; 64 μg/ml) was −52% and the “effect on growth (in words)” value (MAP 303) was “no dose-dependent inhibition”. For the same molecule, the “percent change … (% ΔcGI / % −ΔcGI)” value (M. avium ATCC 25291; 1 μg/ml) was 176%, the “percent change … (% ΔcGI / % −ΔcGI)” value (M. avium ATCC 25291; 4 μg/ml) was 89% and the “percent change … (% ΔcGI / % −ΔcGI)” value (M. avium ATCC 25291; 16 μg/ml) was 189%. The “percent change … (% ΔcGI / % −ΔcGI)” value (M. avium ATCC 25291; 64 μg/ml) was −90%, the “percent change … (% ΔcGI / % −ΔcGI)” value (M. avium 101; 1 μg/ml) was −48% and the “percent change … (% ΔcGI / % −ΔcGI)” value (M. avium 101; 4 μg/ml) was −96%. For the same molecule, the “percent change … (% ΔcGI / % −ΔcGI)” value (M. avium 101; 16 μg/ml) was −95%, the “percent change … (% ΔcGI / % −ΔcGI)” value (M. avium 101; 64 μg/ml) was −97% and the “percent decrease from control cGI (%−ΔcGI)” value (shortened to “percent decrease … (%−ΔcGI)”) (M. avium 101; 64 μg/ml, value is a decrease) was at least 97%. The “percent decrease … (%−ΔcGI)” value [2] was at least 97%, the “percent change … (% ΔcGI / % −ΔcGI)” value ([3]; 1 μg/ml) was −97% and the “percent decrease … (%−ΔcGI)” value ([3]; 1 μg/ml) was 97%. The “percent change … (% ΔcGI / % −ΔcGI)” value ([3]; 4 μg/ml) was −98%, the “percent change … (% ΔcGI / % −ΔcGI)” value ([3]; 16 μg/ml) was −98% and the “percent change … (% ΔcGI / % −ΔcGI)” value ([3]; 64 μg/ml) was −98%.

For NC(=O)c1cccnc1 [Nicotinamide, nicotinamide], the “percent change … (% ΔcGI / % −ΔcGI)” value ([1]; 0.1 μg/ml, second value printed in Table 4) was 32%, the “percent change … (% ΔcGI / % −ΔcGI)” value ([1]; 0.4 μg/ml, second value printed in Table 4) was 98% and the “percent change … (% ΔcGI / % −ΔcGI)” value [1, 4] was 110%. For the same molecule, the “percent change … (% ΔcGI / % −ΔcGI)” value ([1]; 1.6 μg/ml, second value printed in Table 4) was 156%, the “percent change … (% ΔcGI / % −ΔcGI)” value [1, 5] was 115% and the “percent change … (% ΔcGI / % −ΔcGI)” value ([1]; 6.4 μg/ml, second value printed in Table 4) was 156%. For the same molecule, the “percent change … (% ΔcGI / % −ΔcGI)” value [1, 6] was 125%, the “percent change … (% ΔcGI / % −ΔcGI)” value [1, 7] was 106% and the “effect on growth (in words)” value [1] was “enhanced”. For the same molecule, the “percent increase from control cGI (%+ΔcGI)” value ([1]; for 1, 4, 16 and 64 μg/ml, first experiment) was at least 100%, the “percent change … (% ΔcGI / % −ΔcGI)” value (MAP strain UCF-4; 0.1 μg/ml) was 20% and the “percent change … (% ΔcGI / % −ΔcGI)” value (MAP strain UCF-4; 0.4 μg/ml) was 52%. For the same molecule, the “percent change … (% ΔcGI / % −ΔcGI)” value (MAP strain UCF-4; 1.6 μg/ml) was 73%, the “percent change … (% ΔcGI / % −ΔcGI)” value (MAP strain UCF-4; 6.4 μg/ml) was 79% and the “effect on growth (in words)” value (MAP strain UCF-4) was “enhanced”. For the same molecule, the “percent change … (% ΔcGI / % −ΔcGI)” value (MAP ATCC 19698; 0.1 μg/ml) was −6%, the “percent change … (% ΔcGI / % −ΔcGI)” value (MAP ATCC 19698; 0.4 μg/ml) was −2% and the “percent change … (% ΔcGI / % −ΔcGI)” value (MAP ATCC 19698; 1.6 μg/ml) was −8%. For the same molecule, the “percent change … (% ΔcGI / % −ΔcGI)” value (MAP ATCC 19698; 6.4 μg/ml) was −7%, the “effect on growth (in words)” value (MAP ATCC 19698) was “no effect” and the “percent change … (% ΔcGI / % −ΔcGI)” value (MAP 303; 0.1 μg/ml) was −5%. The “percent change … (% ΔcGI / % −ΔcGI)” value (MAP 303; 0.4 μg/ml) was −28%, the “percent change … (% ΔcGI / % −ΔcGI)” value (MAP 303; 1.6 μg/ml) was 11% and the “percent change … (% ΔcGI / % −ΔcGI)” value (MAP 303; 6.4 μg/ml) was 3%. For the same molecule, the “effect on growth (in words)” value (MAP 303) was “no effect”, the “percent change … (% ΔcGI / % −ΔcGI)” value (M. avium ATCC 25291; 0.1 μg/ml) was 23% and the “percent change … (% ΔcGI / % −ΔcGI)” value (M. avium ATCC 25291; 0.4 μg/ml) was 105%. The “percent change … (% ΔcGI / % −ΔcGI)” value (M. avium ATCC 25291; 1.6 μg/ml) was 157%, the “percent change … (% ΔcGI / % −ΔcGI)” value (M. avium ATCC 25291; 6.4 μg/ml) was 144% and the “effect on growth (in words)” value (M. avium ATCC 25291; at the doses tested) was “caused enhancement of growth”. The “percent change … (% ΔcGI / % −ΔcGI)” value (M. avium 101; 0.1 μg/ml) was 6%, the “percent change … (% ΔcGI / % −ΔcGI)” value (M. avium 101; 0.4 μg/ml) was −21% and the “percent change … (% ΔcGI / % −ΔcGI)” value (M. avium 101; 1.6 μg/ml) was 7%. For the same molecule, the “percent change … (% ΔcGI / % −ΔcGI)” value (M. avium 101; 6.4 μg/ml) was 58%, the “effect on growth (in words)” value (M. avium 101; at the doses tested) was “caused enhancement of growth” and the “effect on growth (in words)” value ([2]; at the doses tested) was “no effect”. The “effect on growth (in words)” value [3] was “no effect”.
